Data on six compounds can be found in patent US20030220521A1, “Renal-selective prodrugs for control of renal sympathetic nerve activity in the treatment of hypertension” (G.D. Searle & Co., priority 1989, published 2003).

The subject of one assay is conscious SHR. Description: Assay XIII: antihypertensive experiments in conscious SHR (renal denervation, bulbocapnine). In kind it is in vivo, rat. The settings on record: bulbocapnine alone. As to the method:
For antihypertensive experiments, male SHR (11-13 weeks of age; Harlan Sprague-Dawley, Inc.; Indianapolis, Ind.) were habituated for 3-4 days in individual experimental cages, which became their home cages for the duration of the study. Five to seven days before experimentation, SHR were anesthetized with chloral hydrate (400 mg/kg; Sigma Chemical Co., St. Louis, Mo.) and catheters were implanted into a femoral artery and vein. The catheters were led to the back of the neck, exteriorized, and channeled through a tether and swivel system (Alice King Chatham, Los Angeles, Calif.). Surgical renal denervation was performed as above. […] In separate groups of conscious SHR, Ex. #859 (5 mg/kg/hr, n=6) was infused alone, Ex. #859 (5 mg/kg/hr, n=6) was coinfused with bulbocapnine (100 μg/kg/min), or Ex. #859 (10 mg/kg/hr, n=6) was infused 5-7 days after surgical renal denervation. Surgical renal denervation was performed as described above. After a one hour control measure of mean arterial pressure, compounds were infused for four hours and mean arterial pressure was measured continuously.

The test system of assay [1] is spontaneously hypertensive rats. As to the kind of experiment: Assay III: chronic i.v. infusion, mean arterial pressure in spontaneously hypertensive rats (Ex. #464). Format: in vivo, rat. The settings on record: SHR; for MAP: continuous infusion 10 mg/hr. As to the method:
The Ex. #464 conjugate and saline vehicle were infused continuously for four days in spontaneously hypertensive rats. Mean arterial pressure was measured (Gould Chart Recorder, model 3800; Statham P23Db pressure transducer) via an indwelling femoral artery catheter between 10:00 a.m. and 2:00 p.m. each day. The Ex. #464 conjugate was infused at 10 mg/hr and the saline vehicle was infused at 300 μL/hr.

The target of assay [2] is T1, dopamine beta-hydroxylase (DBH; EC 1.14.17.1) (Bos taurus, UniProt P15101).
T1 construct: DBH, purified from bovine adrenals (Sigma); purchased Sigma; host or cells: bovine adrenals (tissue-purified)
T1 sequence (P15101 1-610): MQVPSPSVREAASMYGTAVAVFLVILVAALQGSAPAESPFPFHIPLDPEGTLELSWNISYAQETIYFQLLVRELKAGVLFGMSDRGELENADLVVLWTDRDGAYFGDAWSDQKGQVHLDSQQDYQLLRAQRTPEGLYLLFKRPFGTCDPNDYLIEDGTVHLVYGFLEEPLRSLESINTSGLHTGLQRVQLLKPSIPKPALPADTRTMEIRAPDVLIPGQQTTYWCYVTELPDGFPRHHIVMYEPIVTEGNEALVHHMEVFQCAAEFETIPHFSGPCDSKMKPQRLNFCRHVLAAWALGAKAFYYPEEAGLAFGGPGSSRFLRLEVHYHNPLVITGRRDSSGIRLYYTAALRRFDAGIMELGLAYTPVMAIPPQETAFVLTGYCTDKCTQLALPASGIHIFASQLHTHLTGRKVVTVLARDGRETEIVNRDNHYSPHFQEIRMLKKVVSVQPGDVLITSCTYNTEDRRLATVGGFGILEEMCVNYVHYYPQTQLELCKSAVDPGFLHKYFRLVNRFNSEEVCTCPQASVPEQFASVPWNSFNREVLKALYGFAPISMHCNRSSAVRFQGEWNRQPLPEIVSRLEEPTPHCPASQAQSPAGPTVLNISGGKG
As to the kind of experiment: Assay V: in vitro DBH inhibition (norepinephrine production, HPLC). In kind it is biochemical, bovine. The settings on record: for inhibition at 20 µM: test compound 20 μM, read-out: % Inhibition of DBH. As to the method:
In order to characterize the relative potency of the Ex. #859 conjugate and its various potential metabolites as inhibitors of dopamine beta-hydroxylase (DBH; EC 1.14.17.1), the enzyme activity was determined in vitro in the presence of these compounds. DBH, purified from bovine adrenals (Sigma) was incubated at 37° C. in buffer containing 20 mM dopamine as substrate. The reaction was stopped by addition of 0.5 M perchloric acid. The precipitate was removed and the product of the enzyme activity (norepinephrine), contained in the clear supernatant, was analyzed by HPLC. The chromatographic separation used a reversed phase C-18 column run isocratically with 0.2 M ammonium acetate (pH 5.2) as the mobile phase. The amount of norepinephrine produced by the enzyme-substrate mixture was analyzed by measuring the peak intensity (absorbance) at 280 nm for norepinephrine as it was eluted at 4.5 minutes, using a photo-diode array detector. The result of adding either fusaric acid or the Ex. #859 conjugate to the incubate at various concentrations is shown in Table XXIII and FIG. 6. […] Fusaric acid and Ex. #859 and two more possible metabolites (Ex #858 and fusaric acid hydrazide) were tested at 20 uM.

Assay [3] deals with spontaneously hypertensive rats. Description: Assay IX: chronic 4 day i.v. infusion of Ex. #861 and #863, mean arterial pressure in SHR. As to conditions: for Blood Pressure (mean arterial pressure): 5 mg/hr i.v. infusion; for chronic effect on mean arterial pressure: SHR, 4 day infusion at 5 mg/hr. Format: in vivo, rat. As to the method:
The conjugates of Ex. #861 and #863 and saline vehicle were infused continuously for 4 days in spontaneously hypertensive rats. Mean arterial pressure was measured (Gould Chart Recorder, model 3800; Statham P23Db pressure transducer) via an indwelling femoral artery catheter between 10:00 a.m. and 2:00 p.m. each day. The Ex. #861 and Ex. #863 conjugates were infused at 5 mg/hr and the saline vehicle was infused at 100 μl/hr via a jugular vein catheter with a Harvard infusion pump. […] It is believed that at a higher dose of the Ex. #861 conjugate, blood pressure lowering effects would be observed.

Assay [4] has the same test system. As to the kind of experiment: Assay VI: acute in vivo effects on mean arterial pressure and renal blood flow in anesthetized SHR (i.v. or i.d.). On the set-up: species or system rat. As to conditions: for MAP / RBF: 100 mg/kg i.v. As to the method: Spontaneously hypertensive rats were anesthetized with inactin (100 mg/kg, i.p.) and catheters were implanted into a carotid artery for measurement of mean arterial pressure (Gould model 3800 chart recorder; Statham pressure transducer model no. P23DB) and into a jugular vein for compound administrations (i.v. or i.d.). In addition, a flow probe was implanted around the left renal artery for measurement of renal blood flow using pulsed Doppler flowmetry. Rats were allowed 60 min to stabilize before 10 minutes of control recordings of mean arterial pressure and renal blood flow were obtained. Control measurements were followed by intravenous injection of 50 mg/kg of fusaric acid or the Ex. #859 conjugate. […] The Ex. #859 conjugate had no effect on mean arterial pressure at a dose of 100 mg/kg (n=4) during a 60 minute observation period. Renal blood flow (n=4) was unchanged 15 minutes after injection of the Ex. #859 conjugate but increased from 1.1 KHz (control period) to 3.5 KHz at 30 minutes postinjection.

The subject of assay [5] is Spontaneously Hypertensive Rats (SHR). As to the kind of experiment: Assay VII: acute effects on arterial pressure in anesthetized SHR. Format: in vivo, rat. As to conditions: i.v.: fusaric acid and fusaric acid hydrazide 100 mg/kg, Ex. #859 250 mg/kg. As to the method: Mean arterial pressure effects of fusaric acid hydrazide (100 mg/kg, i.v.), fusaric acid (100 mg/kg, i.v.) and Ex. #859 conjugate (250 mg/kg, i.v.) are shown in Table XXVII during a vehicle control period and 60 min post-injection of compound in anesthetized SHR. Rats were prepared as described above, minus the renal artery flow probe.

Where [6] appears, read: anesthetized SHR, Ex. #863 (Table XXVI).

For the compound `COc1ccc2c(c1O)-c1c3c(cc4c1[C@H](C2)N(C)CC4)OCO3` [Bulbocapnine, bulbocapnine, reference compound], the Mean arterial pressure with conscious SHR (0 hours) came out at 160 ± 6; in the assay with conscious SHR (1 hour), 156 ± 7; in the assay on conscious SHR (2 hours) it was 161 ± 11; with conscious SHR (3 hours), 159 ± 6; in the assay on conscious SHR (4 hours) it was 157 ± 7. In addition, the “effect on mean arterial pressure over the four hour period” value in the assay with conscious SHR (conscious SHR) is given as “no effect”.
For the compound `CC(=O)NC(CCC(=O)N[C@@](C)(Cc1ccc(O)c(O)c1)C(=O)O)C(=O)O` (stereo partly drawn) [Ex. #464, N-[4-(acetylamino)-4-carboxy-1-oxobutyl]-3-hydroxy-α-methyl-L-tyrosine], the MAP in assay [1] (day 1) stood at 169 ± 5 mm Hg; in assay [1] (day 2), 161 ± 4 mm Hg; in assay [1] (day 3), 163 ± 5 mm Hg; in assay [1] (day 4), 159 ± 8 mm Hg; in assay [1] (day Zero), 179 ± 6 mm Hg. For the same compound, the “effect on mean arterial pressure over the four-day period” value in assay [1] (infusion 10 mg/hr) is “lowered significantly”.
A word on the inhibition: it is the relative decrease from the control value, in per cent. Regarding `CCCCc1ccc(C(=O)NNC(=O)CCC(N)C(=O)O)nc1` [Ex. #858, L-glutamic acid, 5-{[(5-butyl-2-pyridinyl)carbonyl]hydrazide}], the inhibition at 20 µM in assay [2] is 0%.
As to `CCCCc1ccc(C(=O)NCCNC(=O)CCC(NC(C)=O)C(=O)O)nc1` [Ex. #861, N^2-acetyl-N-[2-[[(5-butyl-2-pyridinyl)carbonyl]amino]ethyl]-L-glutamine], the “Blood Pressure (mean arterial pressure)” value in assay [3] (day 1) is reported as 173 ± 3; in assay [3] (day 2) it was 172 ± 4; in assay [3] (day 3), 172 ± 3; in assay [3] (day 4), 163 ± 9; in assay [3] (day zero) it was 177 ± 3. Further, in assay [3], the “chronic effect on mean arterial pressure” value is reported as “did not change”.
Take `CCCCc1ccc(C(=O)N2CCN(C(=O)CCC(NC(C)=O)C(=O)O)CC2)nc1` (centres unmarked) [Ex. #863, 2-(acetylamino)-5-(4-[(5-butyl-2-pyridinyl)carbonyl]-1-piperazinyl]-5-oxopentanoic acid]: the MAP turned out to be 147 ± 14 mm Hg in assay [4] (60 min) and 149 ± 14 mm Hg in assay [4] (time zero). Further, the RBF in assay [4] (60 min) was 4.3 ± 0.3 KHz; in assay [4] (time zero), 1.6 ± 0.2 KHz. Moreover, in assay [4] (setting [6]), the “effect on mean arterial pressure” value is recorded as “no effect”. In assay [4] (setting [6]), the “effect on renal blood flow” value is “increased renal blood flow”. Further, the “Blood Pressure (mean arterial pressure)” value in assay [3] (day 1) is 152 ± 6; in assay [3] (day 2), 146 ± 7; in assay [3] (day 3), 142 ± 7; in assay [3] (day 4), 154 ± 7; in assay [3] (day zero), 177 ± 5. Further, the “chronic effect on mean arterial pressure” value in assay [3] is on record as “lowered mean arterial pressure”.
As for `CCCCc1ccc(C(=O)NN)nc1` [Fusaric Acid Hydrazide, 5-n-butylpicolinic acid hydrazide], in assay [2], the inhibition at 20 µM was found to be 13.8%. The “inhibitory effect on dopamine-β-hydroxylase activity” value in assay [2] (tested at 20 uM) is “Only fusaric acid had significant inhibitory effects”. Moreover, the figures for the Mean arterial pressure in assay [5] (60 MIN post-injection) and in assay [5] (ZERO (vehicle control period)) were 104 ± 13 mmHg and 159 ± 8 mmHg, respectively.
